≈ marks a conversion by molar mass, not a printed value. Read-outs that look alike come from different tables or passages of the source.
Legend:
M. hyopneumoniae Str. 11 = test: MIC against Mycoplasma in vitro (Friis broth with agarose); assay type: cell-based; settings: Mesomycoplasma hyopneumoniae
[1] = tested on: M. hyopneumoniae J2206/183^b; test: as above; assay type: cell-based; settings: Mesomycoplasma hyopneumoniae, 144 h
[2] = tested on: M. hyopneumoniae NCTC 101101; test: as above; assay type: cell-based; settings: Mesomycoplasma hyopneumoniae, NCTC101101, 144 h
Bacillus subtilis 6633 = test: MIC against human bacteria in vitro (nutrient agar, chocolated horse blood); assay type: cell-based; settings: human; Bacillus subtilis 6633; 18 hours at 37° C; read-out: MIC
Protocol: (§1) The activity of the normonyl derivaties of the Examples against various bacteria which are important in diseases of humans, was assayed in vitro using serial dilutions in nurient agar with 5% chocolated horse blood.

E. coli ESS = test: as above; assay type: cell-based; settings: Escherichia coli; human; E. coli ESS; 18 hours at 37° C; read-out: MIC
Protocol: as §1

E. coli NCTC 10418 = test: as above; assay type: cell-based; settings: Escherichia coli, NCTC10418; human; E. coli NCTC 10418; 18 hours at 37° C; read-out: MIC
Protocol: as §1

[3] = tested on: Haemophilus influenzae Wy21; test: as above; assay type: cell-based
Protocol: as §1

K. aerogenes A = test: as above; assay type: cell-based; settings: Klebsiella aerogenes; human; K. aerogenes A; 18 hours at 37° C; read-out: MIC
Protocol: as §1

[4] = tested on: Neisseria catarrhalis 1502; test: as above; assay type: cell-based; settings: human; Neisseria catarrhalis 1502; 18 hours at 37° C; read-out: MIC
Protocol: as §1

[5] = tested on: Pasteurella multocida 1633; test: as above; assay type: cell-based; settings: human; Pasteurella multocida 1633; 18 hours at 37° C; read-out: MIC
Protocol: as §1

[6] = tested on: Ps. aeruginosa NCTC 10662; test: as above; assay type: cell-based; settings: Pseudomonas aeruginosa, NCTC10662; human; Ps. aeruginosa NCTC 10662; 18 hours at 37° C; read-out: MIC
Protocol: as §1

Sarcina lutea 8340 = test: as above; assay type: cell-based; settings: Micrococcus luteus; human; Sarcina lutea 8340; 18 hours at 37° C; read-out: MIC
Protocol: as §1

Staph. aureus Oxford = test: as above; assay type: cell-based; settings: Staphylococcus aureus; human; Staph. aureus Oxford; 18 hours at 37° C; read-out: MIC
Protocol: as §1

Staph. aureus Russell = test: as above; assay type: cell-based; settings: Staphylococcus aureus; human; Staph. aureus Russell; 18 hours at 37° C; read-out: MIC
Protocol: as §1

Staph. aureus W2827 = test: as above; assay type: cell-based; settings: Staphylococcus aureus; human; Staph. aureus W2827; 18 hours at 37° C; read-out: MIC
Protocol: as §1

Strep. agalactiae 2788-B = test: as above; assay type: cell-based; settings: Streptococcus agalactiae; human; Strep. agalactiae 2788-B; 18 hours at 37° C; read-out: MIC
Protocol: as §1

Strep. faecalis I = test: as above; assay type: cell-based; settings: Enterococcus faecalis; human; Strep. faecalis I; 18 hours at 37° C; read-out: MIC
Protocol: as §1

Strep. spp. 64/848-C = test: as above; assay type: cell-based; settings: human; Strep. spp. 64/848-C; 18 hours at 37° C; read-out: MIC
Protocol: as §1

Strep. dysgalactiae SPD1 = test: MIC against veterinary bacteria in vitro (Diagnostic Sensitivity Test Agar); settings: Streptococcus dysgalactiae, SPD1, 18 h
Protocol: (§2) The activity of the normonyl derivatives of the Examples against various veterinarily important bacteria, was assayed in vitro using two-fold serial dilutions in Diagnostic Sensitivity Test Agar inoculated with 10^4 organisms.

B. subtilis ATCC 6633 = test: as above; settings: Bacillus subtilis, ATCC6633, 18 h
Protocol: as §2

M. hyopneumoniae NB12 = test: MIC against Mycoplasma in vitro (Friis broth with agarose); assay type: cell-based; settings: Mesomycoplasma hyopneumoniae, 144 h; M. hyopneumoniae NB12; 6 days at 37° C; read-out: MIC
M. hyopneumoniae HK (2) = test: as above; assay type: cell-based; settings: Mesomycoplasma hyopneumoniae, 144 h
[7] = tested on: M. hyopneumoniae PW/C/210; test: as above; assay type: cell-based; settings: Mesomycoplasma hyopneumoniae, 144 h; M. hyopneumoniae PW/C/210; 6 days at 37° C; read-out: MIC
M. hyopneumoniae LABER = test: as above; assay type: cell-based; settings: Mesomycoplasma hyopneumoniae, 144 h
[8] = tested on: Corynebacterium xerosis 9755; test: MIC against human bacteria in vitro (nutrient agar, chocolated horse blood); assay type: cell-based; settings: human; Corynebacterium xerosis 9755; 18 hours at 37° C; read-out: MIC
Protocol: as §1

P. mirabilis 889 = test: as above; assay type: cell-based; settings: Proteus mirabilis; human; P. mirabilis 889; 18 hours at 37° C; read-out: MIC
Protocol: as §1

[9] = tested on: Strep. pyogenes R80/421-A; test: as above; assay type: cell-based; settings: Streptococcus pyogenes; human; Strep. pyogenes R80/421-A; 18 hours at 37° C; read-out: MIC
Protocol: as §1

[10] = 144 h, M. hyopneumoniae Str. 11, 6 days at 37° C, read-out: MIC
[11] = M. hyopneumoniae J2206/183^b, 6 days at 37° C, read-out: MIC
[12] = M. hyopneumoniae NCTC 101101, 6 days at 37° C, read-out: MIC
[13] = M. hyopneumoniae HK (2), 6 days at 37° C, read-out: MIC
[14] = M. hyopneumoniae LABER, 6 days at 37° C, read-out: MIC
[15] = human, Haemophilus influenzae Wy21, 18 hours at 37° C, read-out: MIC

Row | Compound | MIC (M. hyopneumoniae Str. 11; [10]) [µg/mL] | MIC [1, 11] [µg/mL] | MIC (Bacillus subtilis 6633) [µg/mL] | MIC (E. coli ESS) [µg/mL] | MIC (E. coli NCTC 10418) [µg/mL] | MIC (K. aerogenes A) [µg/mL] | MIC [5] [µg/mL] | MIC [6] [µg/mL] | MIC (Sarcina lutea 8340) [µg/mL] | MIC (Staph. aureus Oxford) [µg/mL] | MIC (Staph. aureus Russell) [µg/mL] | MIC (Staph. aureus W2827) [µg/mL] | MIC (Strep. agalactiae 2788-B) [µg/mL] | MIC (Strep. faecalis I) [µg/mL] | MIC (Strep. spp. 64/848-C) [µg/mL] | MIC (Strep. dysgalactiae SPD1) [µg/mL] | MIC [8] [µg/mL] | MIC [3, 15] [µg/mL] | MIC (P. mirabilis 889) [µg/mL] | MIC [9] [µg/mL] | further results
1 | CC(=Cc1nnc(-c2ccncc2)o1)CC1OCC(CC2OC2C(C)C(C)O)C(O)C1O (centres unmarked) [Example 7, 2-(1-Normon-2-yl)-5-(4-pyridyl)-1,3,4-oxadiazole A] | 0.5 (≈ 1.12 µM) | 2.5 (≈ 5.61 µM) | 2 (≈ 4.49 µM) | 64 (≈ 144 µM) | > 128 | 128 (≈ 287 µM) | > 128 | > 128 | > 128 | 2 (≈ 4.49 µM) | 32 (≈ 71.8 µM) | 32 (≈ 71.8 µM) | 8 (≈ 18 µM) | > 128 | 8 (≈ 18 µM) | 10 (≈ 22.4 µM) | – | – | – | – | MIC [2, 12]: 2.5 µg/mL (≈ 5.61 µM); MIC ([3]; Haemophilus influenzae, WY21, 18 h): 1 µg/mL (≈ 2.24 µM); MIC [4]: 0.25 µg/mL (≈ 0.561 µM); MIC (B. subtilis ATCC 6633): 2.5 µg/mL (≈ 5.61 µM)
2 | CSc1ccc(-c2nnc(C=C(C)CC3OCC(CC4OC4C(C)C(C)O)C(O)C3O)o2)cc1 (centres unmarked) [Example 3, 2-p-Methylthiophenyl-5-(1-normon-2-yl)-1,3,4-oxadiazole A] | – | – | 4 (≈ 8.15 µM) | 4 (≈ 8.15 µM) | > 128 | > 128 | 8 (≈ 16.3 µM) | > 128 | > 128 | 8 (≈ 16.3 µM) | 8 (≈ 16.3 µM) | 8 (≈ 16.3 µM) | 32 (≈ 65.2 µM) | > 128 | 16 (≈ 32.6 µM) | 10 (≈ 20.4 µM) | > 128 | 2 (≈ 4.08 µM) | > 128 | 16 (≈ 32.6 µM) | MIC (M. hyopneumoniae NB12): 1 µg/mL (≈ 2.04 µM); MIC (M. hyopneumoniae HK (2); [13]): 1 µg/mL (≈ 2.04 µM); MIC (M. hyopneumoniae Str. 11; STR.11, 144 h): 1 µg/mL (≈ 2.04 µM); MIC [7]: 0.5 µg/mL (≈ 1.02 µM); MIC (M. hyopneumoniae LABER; [14]): 1 µg/mL (≈ 2.04 µM); MIC [2]: 1 µg/mL (≈ 2.04 µM)
3 | CC(=Cc1nc(-c2ccc([N+](=O)[O-])cc2)no1)CC1OCC(CC2OC2C(C)C(C)O)C(O)C1O (centres unmarked) [Example 16, 5-(1-Normon-2-yl)-3-(4-nitrophenyl)-1,2,4-oxadiazole] | – | 0.5 (≈ 1.02 µM) | 16 (≈ 32.7 µM) | 8 (≈ 16.3 µM) | > 64 | > 64 | 32 (≈ 65.4 µM) | > 64 | > 64 | 16 (≈ 32.7 µM) | 16 (≈ 32.7 µM) | 16 (≈ 32.7 µM) | 32 (≈ 65.4 µM) | > 64 | 32 (≈ 65.4 µM) | 10 (≈ 20.4 µM) | > 64 | 4 (≈ 8.17 µM) | > 64 | 32 (≈ 65.4 µM) | MIC (M. hyopneumoniae Str. 11; STR.11, 144 h): 0.25 µg/mL (≈ 0.511 µM); MIC (M. hyopneumoniae LABER): 0.25 µg/mL (≈ 0.511 µM); MIC [2]: 1 µg/mL (≈ 2.04 µM); MIC (B. subtilis ATCC 6633): 2.5 µg/mL (≈ 5.11 µM)
4 | CC(=Cc1nc(-c2ccccc2)no1)CC1OCC(CC2OC2C(C)C(C)O)C(O)C1O (centres unmarked) [Example 15, 5-(1-Normon-2-yl)-3-phenyl-1,2,4-oxadiazole A] | 5 (≈ 11.2 µM) | 10 (≈ 22.5 µM) | 32 (≈ 72 µM) | 8 (≈ 18 µM) | > 128 | > 128 | 64 (≈ 144 µM) | > 128 | > 128 | 16 (≈ 36 µM) | 32 (≈ 72 µM) | 32 (≈ 72 µM) | 64 (≈ 144 µM) | > 128 | 64 (≈ 144 µM) | 10 (≈ 22.5 µM) | > 128 | 4 (≈ 9 µM) | > 128 | 32 (≈ 72 µM) | MIC (M. hyopneumoniae NB12): 10 µg/mL (≈ 22.5 µM); MIC (M. hyopneumoniae HK (2); [13]): 10 µg/mL (≈ 22.5 µM); MIC [7]: 5 µg/mL (≈ 11.2 µM); MIC (M. hyopneumoniae LABER; [14]): 5 µg/mL (≈ 11.2 µM); MIC [2, 12]: 10 µg/mL (≈ 22.5 µM)
5 | CC(=Cc1nnc(-c2cccs2)o1)CC1OCC(CC2OC2C(C)C(C)O)C(O)C1O (centres unmarked) [Example 6, 2-(1-Normon-2-yl)-5-(2-thienyl)-1,3,4-oxadiazole A] | – | – | 4 (≈ 8.88 µM) | 8 (≈ 17.8 µM) | > 128 | > 128 | 2 (≈ 4.44 µM) | > 128 | 32 (≈ 71 µM) | 8 (≈ 17.8 µM) | 16 (≈ 35.5 µM) | 16 (≈ 35.5 µM) | 32 (≈ 71 µM) | > 128 | 32 (≈ 71 µM) | 40 (≈ 88.8 µM) | 128 (≈ 284 µM) | 2 (≈ 4.44 µM) | > 128 | 16 (≈ 35.5 µM) | MIC (M. hyopneumoniae HK (2)): 5 µg/mL (≈ 11.1 µM); MIC (M. hyopneumoniae Str. 11; STR.11, 144 h): 2.5 µg/mL (≈ 5.55 µM); MIC [1]: 5 µg/mL (≈ 11.1 µM); MIC (M. hyopneumoniae LABER): 2.5 µg/mL (≈ 5.55 µM); MIC [2]: 5 µg/mL (≈ 11.1 µM)
6 | CC(=Cc1noc(-c2ccccc2)n1)CC1OCC(CC2OC2C(C)C(C)O)C(O)C1O (centres unmarked) [Example 17, 3-(1-Normon-2-yl)-5-phenyl-1,2,4-oxadiazole] | 1 (≈ 2.25 µM) | 2.5 (≈ 5.62 µM) | 2 (≈ 4.5 µM) | 4 (≈ 9 µM) | > 128 | > 128 | 16 (≈ 36 µM) | > 128 | > 128 | 4 (≈ 9 µM) | 4 (≈ 9 µM) | 4 (≈ 9 µM) | 8 (≈ 18 µM) | > 128 | 8 (≈ 18 µM) | 2.5 (≈ 5.62 µM) | > 128 | 1 (≈ 2.25 µM) | > 128 | 4 (≈ 9 µM) | MIC [2, 12]: 2.5 µg/mL (≈ 5.62 µM); MIC (B. subtilis ATCC 6633): 0.625 µg/mL (≈ 1.41 µM)

— patent US4861788A, “Antibacterial 1-normon-2-yl-heterocyclic compounds” (Beecham Group plc, priority 1983, dated 1989)
